These results are taken from ChEMBL document CHEMBL1275517, “Development of caspofungin resistance following prolonged therapy for invasive candidiasis secondary to Candida glabrata infection” (2008).

In brackets after ≈: the same amount, converted by molar mass. Numbered stars: 1 amine (or outer) side, 2 acyl side, 3 side chain; on linkers, the order of the positions; unused ones are H or OH. Bridge positions count the residues as written; N and C are the ends. Square brackets hold non-standard residues; d marks the D form. Peptide text beside a SMILES is read from it. * marks the point of attachment. hTyr(3S-OH,4S-OH,3'-OSO3H) = N[C@H](C(=O)O)[C@H](O)[C@@H](O)c1ccc(O)c(OS(=O)(=O)O)c1; pTerphenylCO(4''-OnC5H11) = CCCCCOc1ccc(-c2ccc(-c3ccc(C(=O)*)cc3)cc2)cc1; Orn(4R-OH,5R-OH) = O=C([C@H](C[C@@H](O)[C@@H](O)N[*:3])N[*:1])[*:2]; hTyr(3S-OH,4S-OH) = N[C@H](C(=O)O)[C@H](O)[C@@H](O)c1ccc(O)cc1; Pro(3S-OH,4S-Me) = C[C@H]1CN[C@H](C(=O)O)[C@H]1O; X1 = CCCCCOc1ccc(-c2cc(-c3ccc(C(=O)*)cc3)no2)cc1; Gln(3R-OH) = NC(=O)C[C@@H](O)[C@H](N)C(=O)O; Hyp = O=C(O)[C@@H]1C[C@@H](O)CN1

Common to all, as to assay type: functional
Assay [1] has as its system Nakaseomyces glabratus. The experiment in a line: Antimicrobial activity against Candida glabrata isolate 7754 after 24 hrs by broth dilution method. The following applies: isolate 7754, 24 h. In general terms: Broth dilution looks for growth in wells or tubes with falling amounts of substance.
The test system of assay [2] is Nakaseomyces glabratus. In words: Antimicrobial activity against Candida glabrata isolate 7755 expressing FKS2 F659V mutant gene after 24 hrs by broth dilution method. As to conditions: isolate 7755, 24 h.
Assay [3] relates to Nakaseomyces glabratus. The experiment in a line: Antimicrobial activity against Candida glabrata isolate 7754 after 24 hrs by broth dilution method in presence of 50% of human serum. As to conditions: isolate 7754, 24 h.
The test system of assay [4] is Nakaseomyces glabratus. The experiment in a line: Antimicrobial activity against Candida glabrata isolate 7755 expressing FKS2 F659V mutant gene after 24 hrs by broth dilution method in presence of 50% of human serum. The following applies: isolate 7755, 24 h.
The subject of assay [5] is Nakaseomyces glabratus. In words: Antimicrobial activity against Candida glabrata isolate 7754 after 48 hrs by broth dilution method. The following applies: isolate 7754, 48 h.
The subject of assay [6] is Nakaseomyces glabratus. The experiment in a line: Antimicrobial activity against Candida glabrata isolate 7755 FKS2 F659V mutant gene after 48 hrs by broth dilution method. As to conditions: isolate 7755, 48 h.
Assay [7] relates to Nakaseomyces glabratus. The experiment in a line: Antimicrobial activity against Candida glabrata isolate 7754 after 48 hrs by broth dilution method in presence of 50% of human serum. As to conditions: isolate 7754, 48 h.
The test system of assay [8] is Nakaseomyces glabratus. The experiment in a line: Antimicrobial activity against Candida glabrata isolate 7755 FKS2 F659V mutant gene after 48 hrs by broth dilution method in presence of 50% of human serum. As to conditions: isolate 7755, 48 h.

What is called MIC is the least concentration at which growth counts as inhibited. Turning to `CCCCCOc1ccc(-c2ccc(-c3ccc(C(=O)N[C@H]4C[C@@H](O)[C@@H](O)NC(=O)[C@@H]5[C@@H](O)[C@@H](C)CN5C(=O)[C@H]([C@@H](C)O)NC(=O)[C@H]([C@H](O)[C@@H](O)c5ccc(O)cc5)NC(=O)[C@@H]5C[C@@H](O)CN5C(=O)[C@H]([C@@H](C)O)NC4=O)cc3)cc2)cc1` [ANIDULAFUNGIN] ({pTerphenylCO(4''-OnC5H11)}-[Orn(4R-OH,5R-OH)]T[Hyp][hTyr(3S-OH,4S-OH)]T[Pro(3S-OH,4S-Me)]; lactam 1-C), the MIC in the assay with Nakaseomyces glabratus [1] amounted to 0.125 µg/mL (≈ 0.11 µM); against Nakaseomyces glabratus [2], 0.5 µg/mL (≈ 0.438 µM); in the assay on Nakaseomyces glabratus [3], 1 µg/mL; in the assay on Nakaseomyces glabratus [4], 4 µg/mL; against Nakaseomyces glabratus [5], 0.125 µg/mL (≈ 0.11 µM); in the assay on Nakaseomyces glabratus [6], 1 µg/mL (≈ 0.877 µM). Also, the MIC in the assay with Nakaseomyces glabratus [7] stood at 2 µg/mL; in the assay with Nakaseomyces glabratus [8], 4 µg/mL.

Regarding `CC[C@H](C)C[C@H](C)CCCCCCCCC(=O)N[C@H]1C[C@@H](O)[C@@H](NCCN)NC(=O)[C@@H]2[C@@H](O)CCN2C(=O)[C@H]([C@H](O)CCN)NC(=O)[C@H]([C@H](O)[C@@H](O)c2ccc(O)cc2)NC(=O)[C@@H]2C[C@@H](O)CN2C(=O)[C@H]([C@@H](C)O)NC1=O` [CASPOFUNGIN], the MIC against Nakaseomyces glabratus [1] was 0.25 µg/mL (≈ 0.229 µM); against Nakaseomyces glabratus [2], 2 µg/mL (≈ 1.83 µM); in the assay on Nakaseomyces glabratus [3] it was 0.5 µg/mL; in the assay with Nakaseomyces glabratus [4] it was 2 µg/mL; in the assay with Nakaseomyces glabratus [5] it was 0.25 µg/mL (≈ 0.229 µM); against Nakaseomyces glabratus [6], 8 µg/mL (≈ 7.32 µM). Moreover, the MIC was determined as 0.5 µg/mL in the assay on Nakaseomyces glabratus [7] and 8 µg/mL in the assay with Nakaseomyces glabratus [8].

Consider `CCCCCOc1ccc(-c2cc(-c3ccc(C(=O)N[C@H]4C[C@@H](O)[C@@H](O)NC(=O)[C@@H]5[C@@H](O)[C@@H](C)CN5C(=O)[C@H]([C@H](O)CC(N)=O)NC(=O)[C@H]([C@H](O)[C@@H](O)c5ccc(O)c(OS(=O)(=O)O)c5)NC(=O)[C@@H]5C[C@@H](O)CN5C(=O)[C@H]([C@@H](C)O)NC4=O)cc3)no2)cc1` [MICAFUNGIN] (X1-[Orn(4R-OH,5R-OH)]T[Hyp][hTyr(3S-OH,4S-OH,3'-OSO3H)][Gln(3R-OH)][Pro(3S-OH,4S-Me)]; lactam 1-C), for which the MIC in the assay on Nakaseomyces glabratus [1] came out at 0.125 µg/mL (≈ 0.0984 µM); against Nakaseomyces glabratus [2], 0.25 µg/mL (≈ 0.197 µM); with Nakaseomyces glabratus [3] it was 1 µg/mL; in the assay with Nakaseomyces glabratus [4] it was 4 µg/mL; with Nakaseomyces glabratus [5], 0.125 µg/mL (≈ 0.0984 µM); against Nakaseomyces glabratus [6], 0.5 µg/mL (≈ 0.394 µM). In addition, the minimal inhibitory concentration (MIC) in the assay on Nakaseomyces glabratus [7] and in the assay with Nakaseomyces glabratus [8] was 4 µg/mL each time.
